# Source: US6761896B1, “Skin cosmetic care system and method” (Unilever Home & Personal Care USA, division of Conopco, Inc., priority 1998, dated 2004)
# Like-named read-outs stand apart in the source and are kept apart here.
# Tested on: pig epidermal cells
# Experiment: DNA synthesis (3H-thymidine) of pig skin organ cultures, epidermis
# Format: cell-based
# Conditions: for activity at 20 µM / activity at 200 µM / activity at 2000 µM: Sus scrofa, read-out: DNA synthesis AS % OF CONTROL
# Procedure: Freshly excised 2-3 week old piglet skins were obtained from Buckshire Farms, Pa. The pig skins were washed exhaustively first with soap and then with 10× antibiotic containing medium (penicillin, streptomycin). The pig skins were then dermatomed at 200 microns thickness. Seven (7) mm punch biopsies were made from these washed pig skins. The biopsies are then washed again with the 10× antibiotic medium and finally with normal DMEM (2 washes). Three (3) biopsies were incubated in each transwell plates, epidermal side up, with 1 ml of serum free DMEM fed from the bottom of the plates. Experiments were started 3 days after the biopsies were equilibrated under these conditions. Three (3) days after equilibrating the pig skin organ cultures prepared as described above, the medium was removed, 1 ml of fresh medium was added, and the wells were treated with different concentrations of lactic acid by adding from a 100 fold concentrated stock in water, directly into the medium. Simultaneous with the addition of lactic acid, selected cultures were also exposed to the South or North pole of a bar magnet or to the Bioflex magnet. The magnets were placed on top of the culture dish to expose the epidermis directly (the organ culture is carried out with the epidermis side on top). Three (3) days later, medium was changed, lactic acid was re-added, and 10 uCi ^3H-thymidine was added to each well. Plates were incubated for a further 24 hrs. At the end of the incubation period, biopsies were removed, washed in PBS for 1 hr with shaking, and incubated overnight in 10 ml of 2M sodium bromide with shaking to split the epidermis from the dermis. The biopsies were washed with PBS, and the epidermis was peeled off from dermis carefully using a scalpel. The epidermis and dermis were digested with 1 ml of 0.5N NaOH overnight at 50 C, 200 ul was used for counting the radioactivity. The DNA synthesis rate was calculated as cpm/7 mm punch biopsy for dermis or epidermis and in some experiments expressed also as % of controls. All organ culture experiments were conducted with at least 6 replicates, and the mean+/−standard deviation was calculated for statistical analysis using Students t-test.
# [1] = Example 5, 0.02 mM LA + South pole of bar magnet
# [2] = Example 5, 0.02 mM LA, no magnet
# [3] = Example 5, 0.2 mM LA + South pole of bar magnet
# [4] = Example 5, 0.2 mM LA, no magnet
# [5] = Example 5, 2.0 mM LA + South pole of bar magnet
# [6] = Example 5, 2.0 mM LA, no magnet
# [7] = Example 6, 0.2 mM LA + North pole
# [8] = Example 6, 0.2 mM LA + South pole
# [9] = Example 6, 0.2 mM LA, no magnet
smiles,measurement,setting,value
"CC(O)C(=O)O (stereo not drawn) [LA, lactic acid]",DNA SYNTHESIS (CPM/BIOPSY) MEAN +/- STD,[1],7915 +/− 2807 CPM/BIOPSY
same,DNA SYNTHESIS (CPM/BIOPSY) MEAN +/- STD,[2],4670 +/− 497 CPM/BIOPSY
same,DNA SYNTHESIS (CPM/BIOPSY) MEAN +/- STD,[3],8402 +/− 512 CPM/BIOPSY
same,DNA SYNTHESIS (CPM/BIOPSY) MEAN +/- STD,[4],5030 +/− 958 CPM/BIOPSY
same,"epidermal proliferation, % over control","Example 5, 2 mM LA + South pole",165%
same,DNA SYNTHESIS (CPM/BIOPSY) MEAN +/- STD,[5],11523 +/− 2123 CPM/BIOPSY
same,synergy of LA and South pole on epidermal proliferation,"Example 5, 2 mM LA + South pole vs additive response",Synergies were observed
same,"epidermal proliferation, % over control","Example 5, 2 mM LA alone",43%
same,DNA SYNTHESIS (CPM/BIOPSY) MEAN +/- STD,[6],6216 +/− 1035 CPM/BIOPSY
same,effect on epidermal proliferation,"Example 5, 0.02 and 0.2 mM lactic acid, no magnet",no significant effect
same,DNA SYNTHESIS (CPM/BIOPSY) MEAN +/- STD,[7],69726 +/− 29913 CPM/BIOPSY
same,"proliferative response, % over control",[7],112%
same,synergy of LA with North pole on epidermal proliferation,"Example 6, 0.2 mM LA + North pole vs north alone control",not synergistic
same,DNA SYNTHESIS (CPM/BIOPSY) MEAN +/- STD,[8],81393 +/− 11738 CPM/BIOPSY
same,"proliferative response, % over control",[8],146%
same,synergy of LA with South pole on epidermal proliferation,"Example 6, 0.2 mM LA + South pole vs LA alone or South pole alone",synergistic
same,DNA SYNTHESIS (CPM/BIOPSY) MEAN +/- STD,[9],41076 +/− 24767 CPM/BIOPSY
same,effect on epidermal proliferation,"Example 6, 0.2 mM Lactic acid alone",no significant effect
same,activity at 20 µM,[1],182%
same,activity at 20 µM,[2],107%
same,activity at 200 µM,[3],193%
same,activity at 200 µM,[4],115%
same,activity at 2000 µM,[5],265%
same,activity at 2000 µM,[6],143%
same,activity at 200 µM,[7],211%
same,activity at 200 µM,[8],246%
same,activity at 200 µM,[9],124%
